Assay [1] in a line: Luminescence Cell-Based Dose Response HTS to Identify Inhibitors of 5'UTR Stem-Loop Driven Prion Protein mRNA Translation in H4 Neuroglioblastoma Cells. [Related pubchem assays: 1827 (Project Summary), 1813 (Primary HTS)]. The format is functional.
Assay [2] in a line: luciferase reporter signal suppression in cells – H4 neuroglioma cells, luminescence, dose response (AID 1990). It is filed as functional, cell-based. Background: Reporter assays use an easily measured gene product as a stand-in for the process of interest.
Assay [3] in a line: alpha-synuclein stem-loop luciferase translation blockers – H4 neuroglioma cells, luminescence, confirmation (AID 1988). It is filed as functional, cell-based.
Assay [4] addresses T1, Estrogen receptor (Homo sapiens, UniProt P03372).
T1 sequence (P03372 whole entry): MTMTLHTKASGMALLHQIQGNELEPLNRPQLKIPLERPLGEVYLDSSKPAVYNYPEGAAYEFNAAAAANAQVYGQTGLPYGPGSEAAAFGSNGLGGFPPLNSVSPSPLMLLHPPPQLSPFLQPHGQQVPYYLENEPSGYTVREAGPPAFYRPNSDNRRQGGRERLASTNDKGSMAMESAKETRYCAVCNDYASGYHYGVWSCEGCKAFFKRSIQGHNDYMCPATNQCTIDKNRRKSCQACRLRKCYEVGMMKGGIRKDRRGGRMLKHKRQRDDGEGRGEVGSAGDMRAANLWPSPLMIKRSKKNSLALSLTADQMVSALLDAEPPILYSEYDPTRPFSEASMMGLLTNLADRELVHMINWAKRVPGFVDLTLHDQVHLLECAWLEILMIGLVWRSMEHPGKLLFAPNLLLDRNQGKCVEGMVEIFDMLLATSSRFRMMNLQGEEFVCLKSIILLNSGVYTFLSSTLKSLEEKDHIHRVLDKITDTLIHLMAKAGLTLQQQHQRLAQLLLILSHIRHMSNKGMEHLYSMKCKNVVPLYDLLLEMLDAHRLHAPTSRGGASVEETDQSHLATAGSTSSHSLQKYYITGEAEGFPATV

The target of assay [5] is T2, Estrogen receptor beta (Homo sapiens, UniProt Q92731). Put plainly: blockers of SRC-3 recruitment to ERβ – biochemical, ELISA, streptavidin-HRP readout, orthogonal assay, confirmation (AID 1060). On the technique in general: An ELISA detects its analyte on a solid surface through an enzyme-linked reagent.
In assay [6] the target is T2, Estrogen receptor beta.
Assay [7] has as its target Voltage-dependent T-type calcium channel subunit alpha-1H (Homo sapiens, UniProt O95180). It is filed as functional.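 Further: channel activity triggered by adding a high calcium stimulation buffer.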
The target in assay [8] is Peroxisome proliferator-activated receptor gamma/Nuclear receptor coactivator 2 (Homo sapiens, UniProt P37231). Put plainly: TR-FRET dose response biochemical High Throughput Screening assay for agonists of the steroid receptor coactivator 2 (SRC-2) recruitment by the peroxisome proliferator-activated receptor gamma (PPAR gamma): non-selective agonists. [Related pubchem assays: 1297, 1032 ]. The format is functional.

The target of assay [9] is Peroxisome proliferator-activated receptor gamma/Nuclear receptor coactivator 3 (Homo sapiens, UniProt P37231). Put plainly: TR-FRET dose response biochemical High Throughput Screening assay for agonists of the steroid receptor coactivator 3 (SRC-3) recruitment by the peroxisome proliferator-activated receptor gamma (PPAR gamma): non-selective agonists. [Related pubchem assays: 1301 (Confirmation screen.), 1048 (Primary screen.)]. The format is functional. (In TR-FRET formats the signal depends on donor and acceptor labels being close together.)

Assay [10] has as its target Peroxisome proliferator-activated receptor gamma/Nuclear receptor coactivator 1 (Homo sapiens, UniProt P37231). As to the kind of experiment: TR-FRET dose response biochemical High Throughput Screening assay for agonists of the steroid receptor coactivator 1 (SRC-1) recruitment by the peroxisome proliferator-activated receptor gamma (PPAR gamma): non-selective agonists. [Related pubchem assays (depositor defined):AID1300, AID1808, AID504735, AID631]. It is filed as protein assay.

For assay [11], the target named is T3, E3 ubiquitin-protein ligase XIAP (Homo sapiens, UniProt P98170). Put plainly: small molecules displacing peptide from XIAP – biochemical, IAP family, fluorescence polarization (AID 1018). It is filed as functional.
Assay [12] has as its target T3, E3 ubiquitin-protein ligase XIAP. As to the kind of experiment: Counter Screen using XIAP-Bir3 for Chemical Antagonists of Bir1/2 domains of IAP-family anti-apoptotic proteins. [Related pubchem assays (depositor defined):AID1018, AID1449, AID1514, AID1638, AID1749, AID1750, AID488957, AID488963].
Assay [13] can be described thus: cells. The format is functional.
Assay [14] relates to Streptococcus. As to the kind of experiment: GAS UMAA2166 growth inhibition – luminescence, BacTiterGlo, counter-screen for streptokinase expression inhibitor project, dose response (AID 1915).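 Further: potency for reduction of bacterial viability or growth.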 The format is functional, organism-based.
In assay [15] the test system is Streptococcus sp. 'group A'. Put plainly: Streptococcus pyogenes SK(-)GAS viability under kanamycin – luminescence, BacTiterGlo, confirmation, counter-screen for streptokinase expression inhibitor project, dose response (AID 1900). It is filed as functional, organism-based.
The nature of assay [16]: THP-1 cell cytotoxicity, dose response, cytotoxicity control for non-replicating M. tuberculosis project (AID 489025). The format is functional.
Assay [17] can be described thus: Vero E6 cell cytotoxicity, dose response, cytotoxicity control for non-replicating M. tuberculosis project, secondary assay (AID 492998). It is filed as functional, VeroE6. The note with it: Vero C1008.
Assay [18] is described as follows: HepG2 cell cytotoxicity, dose response, cytotoxicity control for non-replicating M. tuberculosis project (AID 489018). It is filed as functional. The note with it: Mycobacterium tuberculosis.
Assay [19] has as its target T4, Bcl-2-like protein 10 (Homo sapiens, UniProt Q9HD36).
T4 sequence (Q9HD36 whole entry): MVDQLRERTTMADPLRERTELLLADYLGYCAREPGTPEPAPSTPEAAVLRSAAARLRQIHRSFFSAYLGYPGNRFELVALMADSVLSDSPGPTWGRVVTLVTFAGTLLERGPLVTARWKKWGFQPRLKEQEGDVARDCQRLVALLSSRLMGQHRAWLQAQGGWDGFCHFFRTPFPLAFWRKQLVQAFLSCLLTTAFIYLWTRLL
As to the kind of experiment: Bcl-B/TR3 peptide binding disruption – biochemical, fluorescence polarization, FITC-TR3 peptide, selectivity assay for Bfl-1 inhibitor project, primary screen (AID 748).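 Further: fluorescence polarization from a fluorescein-labelled TR3 peptide binding purified Bcl-B.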

In assay [20] the target is Trypsin (Sus scrofa, UniProt P00761). Put plainly: trypsin protease activity blockade – biochemical, quenched peptide fluorescence, cherry-pick, selectivity assay for Rce1 protease inhibitor project, dose response (AID 488789).
Assay [21] concerns the target T5, CAAX prenyl protease 2 (Homo sapiens, UniProt Q9Y256).
T5 sequence (Q9Y256 whole entry): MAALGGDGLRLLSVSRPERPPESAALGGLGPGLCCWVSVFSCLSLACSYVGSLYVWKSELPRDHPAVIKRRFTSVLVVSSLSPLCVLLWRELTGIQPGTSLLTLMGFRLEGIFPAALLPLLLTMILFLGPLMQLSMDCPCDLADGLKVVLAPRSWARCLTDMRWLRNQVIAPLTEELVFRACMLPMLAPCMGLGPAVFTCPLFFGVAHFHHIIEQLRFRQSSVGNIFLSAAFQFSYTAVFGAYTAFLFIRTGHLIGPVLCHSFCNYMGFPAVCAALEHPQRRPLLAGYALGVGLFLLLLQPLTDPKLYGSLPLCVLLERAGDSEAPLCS
Put plainly: inhibition of Ras-converting CAAX protease Rce1 – biochemical, yeast membranes, quenched-peptide fluorescence, cherry-pick, dose response (AID 588849).

The target in assay [22] is Troponin, cardiac muscle (Homo sapiens, UniProt P19429+P45379+P63316). As to the kind of experiment: Fluorescence-based biochemical high throughput dose response assay for activators of the calcium sensitivity of cardiac Regulated Thin Filaments (RTF). [Related pubchem assays (depositor defined):AID493008, AID493018, AID504382, AID504383]. It is filed as protein-complex assay.

Calls of active or inactive are those of the source.

One may read the EC50 as the midpoint of the concentration-response curve. One may read the IC50 as the concentration that gives 50% inhibition. What is called CC50 is the concentration giving 50% cytotoxicity. The term AC50 denotes the concentration giving half of the maximal activity seen.

T3 sequence (P98170 whole entry): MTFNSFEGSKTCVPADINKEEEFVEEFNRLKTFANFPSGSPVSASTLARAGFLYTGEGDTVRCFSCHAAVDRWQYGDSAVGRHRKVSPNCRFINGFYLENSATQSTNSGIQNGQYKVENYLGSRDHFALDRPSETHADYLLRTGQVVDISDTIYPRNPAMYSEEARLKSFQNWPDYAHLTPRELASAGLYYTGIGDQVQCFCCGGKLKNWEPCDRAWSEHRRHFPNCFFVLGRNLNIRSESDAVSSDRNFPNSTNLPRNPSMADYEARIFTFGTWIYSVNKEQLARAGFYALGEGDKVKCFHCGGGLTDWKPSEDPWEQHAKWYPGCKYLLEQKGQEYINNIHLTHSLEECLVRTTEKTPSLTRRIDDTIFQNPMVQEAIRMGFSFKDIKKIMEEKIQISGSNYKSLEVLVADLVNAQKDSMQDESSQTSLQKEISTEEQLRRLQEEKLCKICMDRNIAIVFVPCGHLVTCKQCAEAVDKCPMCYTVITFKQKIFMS
T2 sequence (Q92731 whole entry): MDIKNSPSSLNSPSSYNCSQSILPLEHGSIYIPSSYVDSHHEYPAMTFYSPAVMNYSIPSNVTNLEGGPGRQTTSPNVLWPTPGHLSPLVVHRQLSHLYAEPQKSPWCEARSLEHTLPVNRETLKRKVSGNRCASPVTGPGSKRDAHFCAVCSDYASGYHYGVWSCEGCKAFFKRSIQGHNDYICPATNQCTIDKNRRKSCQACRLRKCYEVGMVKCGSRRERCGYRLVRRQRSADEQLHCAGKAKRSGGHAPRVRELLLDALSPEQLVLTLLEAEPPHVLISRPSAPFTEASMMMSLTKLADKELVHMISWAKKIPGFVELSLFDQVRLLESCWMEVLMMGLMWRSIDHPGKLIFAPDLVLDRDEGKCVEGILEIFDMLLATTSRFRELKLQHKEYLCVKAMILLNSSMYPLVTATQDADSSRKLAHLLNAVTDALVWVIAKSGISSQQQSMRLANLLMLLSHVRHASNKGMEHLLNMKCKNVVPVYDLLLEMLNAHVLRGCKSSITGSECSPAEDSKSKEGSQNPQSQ
Sequence of Voltage-dependent T-type calcium channel subunit alpha-1H (O95180 whole entry): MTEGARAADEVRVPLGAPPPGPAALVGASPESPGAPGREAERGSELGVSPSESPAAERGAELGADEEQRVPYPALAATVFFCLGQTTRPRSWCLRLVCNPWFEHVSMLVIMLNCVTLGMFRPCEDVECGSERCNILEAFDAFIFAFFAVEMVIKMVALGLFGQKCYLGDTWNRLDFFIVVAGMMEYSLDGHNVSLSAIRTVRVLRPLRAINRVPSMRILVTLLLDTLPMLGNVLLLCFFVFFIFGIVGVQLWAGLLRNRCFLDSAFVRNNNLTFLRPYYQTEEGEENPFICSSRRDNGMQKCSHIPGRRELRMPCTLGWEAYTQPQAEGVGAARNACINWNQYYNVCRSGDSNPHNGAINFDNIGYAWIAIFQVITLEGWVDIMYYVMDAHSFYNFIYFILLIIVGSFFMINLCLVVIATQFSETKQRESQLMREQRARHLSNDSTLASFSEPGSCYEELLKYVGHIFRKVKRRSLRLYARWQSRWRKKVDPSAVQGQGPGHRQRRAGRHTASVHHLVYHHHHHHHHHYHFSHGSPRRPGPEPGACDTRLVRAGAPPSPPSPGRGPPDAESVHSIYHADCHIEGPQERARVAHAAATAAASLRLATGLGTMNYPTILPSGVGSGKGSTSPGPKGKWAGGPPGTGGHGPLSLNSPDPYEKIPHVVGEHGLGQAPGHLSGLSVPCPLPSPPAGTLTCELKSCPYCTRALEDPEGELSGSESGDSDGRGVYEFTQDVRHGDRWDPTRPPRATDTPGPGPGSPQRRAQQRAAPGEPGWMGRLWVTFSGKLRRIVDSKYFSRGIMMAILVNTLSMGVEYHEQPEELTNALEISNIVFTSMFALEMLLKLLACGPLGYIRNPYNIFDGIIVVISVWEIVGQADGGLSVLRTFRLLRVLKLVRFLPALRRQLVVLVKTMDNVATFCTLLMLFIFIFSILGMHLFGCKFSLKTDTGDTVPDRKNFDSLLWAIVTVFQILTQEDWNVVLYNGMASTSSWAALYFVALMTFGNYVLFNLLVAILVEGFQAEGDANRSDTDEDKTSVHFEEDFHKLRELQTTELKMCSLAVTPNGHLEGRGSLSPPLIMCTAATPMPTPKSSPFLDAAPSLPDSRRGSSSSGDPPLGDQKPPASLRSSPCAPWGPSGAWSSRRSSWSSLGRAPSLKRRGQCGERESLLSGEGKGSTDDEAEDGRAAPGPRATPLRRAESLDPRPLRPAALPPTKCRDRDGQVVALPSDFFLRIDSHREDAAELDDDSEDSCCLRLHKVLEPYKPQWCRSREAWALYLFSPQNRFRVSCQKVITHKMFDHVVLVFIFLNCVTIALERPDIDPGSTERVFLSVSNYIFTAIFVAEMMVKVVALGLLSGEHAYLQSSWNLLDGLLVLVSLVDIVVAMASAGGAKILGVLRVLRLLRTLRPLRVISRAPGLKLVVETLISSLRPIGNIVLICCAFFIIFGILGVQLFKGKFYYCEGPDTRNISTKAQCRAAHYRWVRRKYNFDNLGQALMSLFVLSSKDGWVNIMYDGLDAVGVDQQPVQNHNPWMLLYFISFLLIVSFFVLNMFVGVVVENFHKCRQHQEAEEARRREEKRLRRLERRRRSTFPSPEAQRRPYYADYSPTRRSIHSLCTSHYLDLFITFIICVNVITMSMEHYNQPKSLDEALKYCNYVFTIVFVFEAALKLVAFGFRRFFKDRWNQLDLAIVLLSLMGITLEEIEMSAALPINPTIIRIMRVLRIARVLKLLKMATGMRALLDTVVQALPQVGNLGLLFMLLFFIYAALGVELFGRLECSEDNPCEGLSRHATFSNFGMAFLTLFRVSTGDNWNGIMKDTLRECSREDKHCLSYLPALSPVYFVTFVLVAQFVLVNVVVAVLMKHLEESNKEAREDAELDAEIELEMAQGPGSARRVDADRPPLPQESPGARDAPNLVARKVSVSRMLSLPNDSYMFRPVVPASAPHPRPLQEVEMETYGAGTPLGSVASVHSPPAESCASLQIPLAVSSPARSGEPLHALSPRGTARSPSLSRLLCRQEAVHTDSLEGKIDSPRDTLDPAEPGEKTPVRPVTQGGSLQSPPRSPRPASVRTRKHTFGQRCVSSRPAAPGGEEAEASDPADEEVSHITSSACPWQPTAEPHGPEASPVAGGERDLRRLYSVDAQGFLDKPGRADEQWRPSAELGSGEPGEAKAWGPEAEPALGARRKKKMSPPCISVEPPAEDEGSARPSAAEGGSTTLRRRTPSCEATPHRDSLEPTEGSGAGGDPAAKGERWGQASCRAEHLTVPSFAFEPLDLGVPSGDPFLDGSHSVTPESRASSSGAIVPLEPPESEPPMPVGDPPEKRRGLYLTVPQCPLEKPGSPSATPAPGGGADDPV
Sequence of Trypsin (P00761 whole entry): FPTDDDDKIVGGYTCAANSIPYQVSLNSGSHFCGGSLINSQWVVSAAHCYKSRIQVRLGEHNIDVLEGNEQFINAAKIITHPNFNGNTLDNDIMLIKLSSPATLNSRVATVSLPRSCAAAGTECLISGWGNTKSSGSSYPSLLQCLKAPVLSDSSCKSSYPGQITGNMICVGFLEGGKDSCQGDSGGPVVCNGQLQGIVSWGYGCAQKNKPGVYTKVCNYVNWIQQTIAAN

With `COc1ccc(Cn2c(=O)[nH]c3cc(C(=O)NCc4ccc5c(c4)OCO5)ccc3c2=O)cc1`, the EC50 in [1] was > 120 µM (not active); in assay [2], > 120 µM (not active); in assay [3], 11 µM (active). In addition, the IC50 in assay [4] is 18.9 µM (active).

With `CSC1=N/C(=C\c2ccc(Br)o2)C(=O)S1`, the IC50 in assay [5] was < 0.023 µM (not active); in assay [6], 8.58 µM (active); in assay [4], 22.1 µM (active).

Take `Cc1ccc(-c2noc(CSc3nnc(Cc4cccs4)n3-c3ccccc3)n2)cc1`: in [7], the EC50 was 3.56 µM (active).

Take `CCn1c(=O)cc(SCC(=O)N2CCN(c3ccccc3F)CC2)c2ccccc21`: the EC50 is > 79.4 µM (not active) in [8], > 79.4 µM (not active) in assay [9] and > 79.4 µM (inactive) in assay [10].

Take `Cc1cc(=O)oc2cc(OCc3ccc(C(=O)N4CCN(c5ccc([N+](=O)[O-])cc5)CC4)cc3)ccc12`: the figures for the half-inhibitory concentration (IC50) in assay [11] and in assay [12] were > 100 µM (not active) and > 100 µM (inactive), respectively.

Consider `CCOc1ccc(-c2nnc(NC(=O)c3ccc(OCC(C)C)c(OC)c3)o2)cc1`, for which the IC50 in assay [13] was 36.7 µM (active). Besides, the EC50 in assay [14] was 1.76 µM (active); in assay [7] it was 11.3 µM (active); in assay [15] it was 0.354 µM (active). Further, the values for the CC50 in [16], in assay [17] and in assay [18] were 13.8 µM (active), 10.1 µM (active) and > 20 µM (active), respectively.

On to `COC(=O)c1sc(-c2ccccc2)cc1NC(=O)C1CC1`, for which the results for the EC50 in assay [8], in [9] and in [10] were > 79.4 µM (not active), > 79.4 µM (not active) and > 79.4 µM (inactive), respectively.

With `Cc1ccc(S(=O)(=O)NC(=O)c2cc(C)n(CCCn3ccnc3)c2C)cc1`, the IC50 in assay [19] was 74 µM (inactive).

Regarding `CC1CCN(c2oc(-c3ccc(F)cc3)nc2C#N)CC1`, the results for the AC50 in assay [20] and in [21] were 3.18 µM (active) and 9.46 µM (active), respectively.

Consider `CC(C)CN(C(=O)COC(=O)c1cc2c(s1)CCC2)C1CCS(=O)(=O)C1` (centres undefined), for which the concentration for half-maximal inhibition (IC50) in assay [19] is 26.6 µM (active); in assay [5], 1.94 µM (not active); in assay [6], 1.91 µM (active); in [4] it was 2.95 µM (active).

For `Cc1ccc(NC(=O)CN2C(=O)S/C(=C\C(=O)Nc3ccc(Cl)cc3)C2=O)cc1`, the IC50 in [11] is > 100 µM (not active); in assay [12], > 100 µM (inactive).

As for `CCCN(CCC)S(=O)(=O)c1ccc(NS(=O)(=O)c2ccc(F)cc2)cc1`, the EC50 in assay [7] is 3.07 µM (active).

Consider `CCN(CC(=O)Nc1ccccc1C(F)(F)F)C(=O)c1ccc(-n2nc(C)c(CCC(=O)OC)c2C)cc1`, for which the EC50 in assay [22] is > 71.5 µM (inactive).

The values above are taken from ChEMBL document CHEMBL1201862, “PubChem BioAssay data set” (2004).
